According to patent US8940913B2, “Herbicides” (Syngenta Crop Protection, LLC, priority 2007, dated 2015):

Key:
Assay type in all cases: in vivo
[1] = test system: Digitaria sanguinalis (DIGSA); experiment: Post-emergence herbicidal activity, glasshouse pot test; conditions: 360 h, rate 125 g/ha, evaluated 15 days later, 100=total damage to plant, 0=no damage to plant
Method: (§1) Monocotyledonous and dicotyledonous test plants were sown in standard soil in pots. After cultivation for one day (pre-emergence) or after 10 days cultivation (post-emergence) under controlled conditions in a glasshouse, the plants were sprayed with an aqueous spray solution derived from the formulation of the technical active ingredient in 0.6 ml acetone and 45 ml formulation solution containing 10.6% Emulsogen EL (Registry number 61791-12-6), 42.2% N-methylpyrrolidone, 42.2% dipropylene glycol monomethyl ether (Registry number 34590-94-8) and 0.2% X-77 (Registry number 11097-66-8). The test plants were then grown in a greenhouse under optimum conditions until, 15 days later for post-emergence and 20 days for pre-emergence, the test was evaluated (100=total damage to plant; 0=no damage to plant). Test Plants: Alopecurus myosuroides (ALOMY), Avena fatua (AVEFA), Lolium perenne (LOLPE), Setaria faberi (SETFA), Digitaria sanguinalis (DIGSA), Echinochloa crus-galli (ECHCG)

[2] = test system: Setaria faberi (SETFA); experiment: as above; conditions: 360 h, rate 125 g/ha, evaluated 15 days later, 100=total damage to plant, 0=no damage to plant
Method: as §1

[3] = test system: Avena fatua (AVEFA); experiment: as above; conditions: 360 h, rate 125 g/ha, evaluated 15 days later, 100=total damage to plant, 0=no damage to plant
Method: as §1

[4] = test system: Lolium perenne (LOLPE); experiment: as above; conditions: 360 h, rate 125 g/ha, evaluated 15 days later, 100=total damage to plant, 0=no damage to plant
Method: as §1

[5] = test system: Echinochloa crus-galli (ECHCG); experiment: as above; conditions: 360 h, rate 125 g/ha, evaluated 15 days later, 100=total damage to plant, 0=no damage to plant
Method: as §1

[6] = test system: Alopecurus myosuroides (ALOMY); experiment: as above; conditions: 360 h, rate 125 g/ha, evaluated 15 days later, 100=total damage to plant, 0=no damage to plant
Method: as §1

[7] = test system: Digitaria sanguinalis (DIGSA); experiment: Pre-emergence herbicidal activity, glasshouse pot test; conditions: 480 h, rate 250 g/ha, evaluated 20 days later, 100=total damage to plant, 0=no damage to plant
Method: as §1

[8] = test system: Setaria faberi (SETFA); experiment: as above; conditions: 480 h, rate 250 g/ha, evaluated 20 days later, 100=total damage to plant, 0=no damage to plant
Method: as §1

[9] = test system: Avena fatua (AVEFA); experiment: as above; conditions: 480 h, rate 250 g/ha, evaluated 20 days later, 100=total damage to plant, 0=no damage to plant
Method: as §1

[10] = test system: Lolium perenne (LOLPE); experiment: as above; conditions: 480 h, rate 250 g/ha, evaluated 20 days later, 100=total damage to plant, 0=no damage to plant
Method: as §1

[11] = test system: Echinochloa crus-galli (ECHCG); experiment: as above; conditions: 480 h, rate 250 g/ha, evaluated 20 days later, 100=total damage to plant, 0=no damage to plant
Method: as §1

[12] = test system: Alopecurus myosuroides (ALOMY); experiment: as above; conditions: 480 h, rate 250 g/ha, evaluated 20 days later, 100=total damage to plant, 0=no damage to plant
Method: as §1

SMILES: CCc1ccc(-c2ccc(Cl)c(Cl)c2)cc1C1=C(O)[C@H]2[C@@H](C1=O)[C@@H]1CC[C@H]2O1 [Compound T14]
- pest or weed control at 125 g/ha [1]: 100%
- pest or weed control at 125 g/ha [2]: 100%
- pest or weed control at 125 g/ha [3]: 80%
- pest or weed control at 125 g/ha [4]: 30%
- pest or weed control at 125 g/ha [5]: 100%
- pest or weed control at 125 g/ha [6]: 90%
- pest or weed control at 250 g/ha [7]: 90%
- pest or weed control at 250 g/ha [8]: 100%
- pest or weed control at 250 g/ha [9]: 20%
- pest or weed control at 250 g/ha [10]: 40%
- pest or weed control at 250 g/ha [11]: 90%
- pest or weed control at 250 g/ha [12]: 10%

SMILES: CC(=O)OC1=C(c2c(C)cc(-c3ccccc3)cc2C)C(=O)[C@@H]2[C@H]1[C@@]1(C)CC[C@]2(C)O1 [Compound P6]
- pest or weed control at 125 g/ha [1]: 90%
- pest or weed control at 125 g/ha [2]: 100%
- pest or weed control at 125 g/ha [3]: 50%
- pest or weed control at 125 g/ha [4]: 60%
- pest or weed control at 125 g/ha [5]: 100%
- pest or weed control at 125 g/ha [6]: 70%
- pest or weed control at 250 g/ha [7]: 100%
- pest or weed control at 250 g/ha [8]: 100%
- pest or weed control at 250 g/ha [9]: 30%
- pest or weed control at 250 g/ha [10]: 70%
- pest or weed control at 250 g/ha [11]: 100%
- pest or weed control at 250 g/ha [12]: 80%

SMILES: CCc1ccc(-c2ccc(Cl)c(F)c2F)cc1C1=C(O)[C@H]2[C@@H](C1=O)[C@]1(C)CC[C@@]2(C)O1 [Compound T38]
- pest or weed control at 125 g/ha [1]: 100%
- pest or weed control at 125 g/ha [2]: 80%
- pest or weed control at 125 g/ha [3]: 90%
- pest or weed control at 125 g/ha [4]: 50%
- pest or weed control at 125 g/ha [5]: 100%
- pest or weed control at 125 g/ha [6]: 100%
- pest or weed control at 250 g/ha [7]: 30%
- pest or weed control at 250 g/ha [8]: 90%
- pest or weed control at 250 g/ha [9]: 30%
- pest or weed control at 250 g/ha [10]: 50%
- pest or weed control at 250 g/ha [11]: 100%
- pest or weed control at 250 g/ha [12]: 0%

SMILES: CCc1ccc(-c2ccc(Cl)s2)cc1C1=C(O)[C@H]2[C@@H](C1=O)[C@]1(C)CC[C@@]2(C)O1 [Compound T32]
- pest or weed control at 125 g/ha [1]: 70%
- pest or weed control at 125 g/ha [2]: 70%
- pest or weed control at 125 g/ha [3]: 70%
- pest or weed control at 125 g/ha [4]: 60%
- pest or weed control at 125 g/ha [5]: 100%
- pest or weed control at 125 g/ha [6]: 70%
- pest or weed control at 250 g/ha [7]: 30%
- pest or weed control at 250 g/ha [8]: 100%
- pest or weed control at 250 g/ha [9]: 0%
- pest or weed control at 250 g/ha [10]: 60%
- pest or weed control at 250 g/ha [11]: 70%
- pest or weed control at 250 g/ha [12]: 30%

SMILES: Cc1cc(-c2ccccc2)cc(C)c1C1=C(OC(=O)c2c(C)noc2C)[C@H]2[C@@H](C1=O)[C@@H]1CC[C@H]2O1 [Compound P4]
- pest or weed control at 125 g/ha [1]: 80%
- pest or weed control at 125 g/ha [2]: 80%
- pest or weed control at 125 g/ha [3]: 90%
- pest or weed control at 125 g/ha [4]: 90%
- pest or weed control at 125 g/ha [5]: 100%
- pest or weed control at 125 g/ha [6]: 100%
- pest or weed control at 250 g/ha [7]: 100%
- pest or weed control at 250 g/ha [8]: 100%
- pest or weed control at 250 g/ha [9]: 50%
- pest or weed control at 250 g/ha [10]: 90%
- pest or weed control at 250 g/ha [11]: 100%
- pest or weed control at 250 g/ha [12]: 100%

SMILES: Cc1cc(-c2ccccc2)cc(C)c1C1C(=O)[C@@H]2[C@H](C1=O)[C@H]1CC[C@@H]2O1 (mixture of isomers) [Compound T6, (1RS,2SR,6RS,7SR)-4-(3,5-dimethylbiphen-4-yl)-10-oxa-tricyclo[5.2.1.0^2,6]decane-3,5-dione]
- pest or weed control at 125 g/ha [1]: 30%
- pest or weed control at 125 g/ha [2]: 60%
- pest or weed control at 125 g/ha [3]: 30%
- pest or weed control at 125 g/ha [4]: 50%
- pest or weed control at 125 g/ha [5]: 70%
- pest or weed control at 125 g/ha [6]: 80%
- pest or weed control at 250 g/ha [7]: 80%
- pest or weed control at 250 g/ha [8]: 100%
- pest or weed control at 250 g/ha [9]: 0%
- pest or weed control at 250 g/ha [10]: 70%
- pest or weed control at 250 g/ha [11]: 100%
- pest or weed control at 250 g/ha [12]: 50%

SMILES: CCc1ccc(-c2ccc(Cl)cc2C)cc1C1=C(O)[C@H]2[C@@H](C1=O)[C@]1(C)CC[C@@]2(C)O1 [Compound T28]
- pest or weed control at 125 g/ha [1]: 70%
- pest or weed control at 125 g/ha [2]: 100%
- pest or weed control at 125 g/ha [3]: 90%
- pest or weed control at 125 g/ha [4]: 50%
- pest or weed control at 125 g/ha [5]: 100%
- pest or weed control at 125 g/ha [6]: 90%
- pest or weed control at 250 g/ha [7]: 30%
- pest or weed control at 250 g/ha [8]: 20%
- pest or weed control at 250 g/ha [9]: 30%
- pest or weed control at 250 g/ha [10]: 40%
- pest or weed control at 250 g/ha [11]: 0%
- pest or weed control at 250 g/ha [12]: 0%
